Reference: US20030198617A1, “Pharmaceutical tryptophan containing dipeptide compositions and methods of use thereof” (priority 1993, published 2003)
Entries after “also recorded” stand apart in the source; their conditions may differ. Read-outs that look alike come from different tables or passages of the source.

How the values were obtained:
[1] = test system: antibiotic-resistant staphylococci; experiment: Chronic skin diseases caused by antibiotic-resistant staphylococci; assay type: in vivo, human
Description: Ile-Trp is administered to patients suffering from chronic skin diseases caused by antibiotic-resistant staphylococci. Ile-Trp is administered IM in single daily doses of 100 μg for 5 days and intranasally to a different group in the same daily and total dose. In the patients with signs of secondary T-immunodeficiency the staphylococci antibiotic sensitivity to one, few or all antibiotics is increased which then permits one to choose for each patient an effective antibiotic with exclusively high activity against a given pathogen.
47 patients with the same pathology but not treated with the immunomodulator were the control group. […] The differences between these methods of application were not noticed. In all the patients with signs of secondary T-immunodeficiency the staphylococci antibiotic-sensitivity to one, few or all antibiotics has been increased sharply (more than 100-fold) what permitted further to choose for each patient the antibiotic with exclusively high activity against pathogen. As a whole, within the examined group of patients the reliable decease of MIC of all studied antibiotics has been marked. The proposed treatment regiment permitted to obtain the complete recovery in 27 patients, significant improvement—in 8 patients and moderate improvement—in 1 patient.

[2] = Patients with various allergies; assay type: in vivo, human
[3] = Symptom complexes: joint pain, muscle aches, fevers, chills (Examples 17, 66); assay type: in vivo, human
[4] = Pyoderma patients (furunculitis, cellulitis, folliculitis); assay type: in vivo, human; details: IM or intranasally 5 days
Description: Patients with pyoderma, including furunculitis, cellulitis, and folliculitis, are treated with Ile-Trp with a control group which is not treated with Ile-Trp. Medications are administered either IM or intranasally for 5 consecutive days. […] Clinical improvement correlate with immunological indices correction. Administration IM, intranasally, or topically as a sterile saline, solution of medication for a period of 5 to 10 days at a concentration of 1 μg/kg body weight.
Medications were administered either IM or intranasally for 5 consecutive days. […] Clinical improvement correlated with immunological indices correction. Administration IM, intranasally, or topically as a sterile saline solution of medication for a period of 5 to 10 days at a concentration of 1 μg/kg body weight.

[5] = Deformity and scarring after injuries; assay type: in vivo, human
[6] = Massive hemotransfusions in post-operative period; assay type: in vivo, human
Description: Patients exposed to massive hemotransfusions during post-operative period are treated with Ile-Trp. The peptide is administered starting from 4-6 day of post-operative period single daily IM or intranasally in doses 100 μg for 5 days.

Pyelonephritis = assay type: in vivo, human
Text: The normal course of delivery in those women treated with IM862 was without complications.

viral infection = experiment: Acute respiratory disease patients; assay type: in vivo, human
Description: Patients with acute respiratory disease, including upper airway diseases, such as colds, are treated with Ile-Trp. […] Secondary infectious complications are diminished, and the duration of the treatment is also diminished.
There was noted a decrease in the specific signs of upper respiratory infections such rhinorrhea, sore throat, fever, muscle aches, headaches, and ear pain. Secondary infectious complications were diminished, and the duration of the treatment was also diminished.

Lymphangitis = assay type: in vivo, human
Chronic osteomyelitis = assay type: in vivo, human
Description: Ile-Trp is prescribed to patients with chronic osteomyelitis of various etiology and localization. Ile-Trp is administered IM or intranasally single daily at 100 μg for 10 days.
The control group comprised 88 patients.

[7] = Patients subjected to skin grafting; assay type: in vivo, human
Description: Ile-Trp is administered to patients subjected to skin grafting. Ile-Trp is administered IM or intranasally single daily at 50-100 μg for 5 days.
The control group comprised 27 patients. […] In control group the manifestations of rejection were determined in 8 patients.

Wounds of various origin = assay type: in vivo, human
Description: Ile-Trp is used in patients with wounds of various origin, type and localization. Ile-Trp is administered IM or topically single daily at 100 μg for 10 days.
The control group comprised 24 patients.

Bronchial asthma = assay type: in vivo, human
Text: Patients, children and adults, with bronchial asthma are studied. […] A significant reduction in bronchial obstruction and laryngotracheitis is noted.
A total of 37 patients, children and adults, with bronchial asthma and 28 similar patients as controls were studied. […] The significant reduction in bronchial obstruction and laryngotracheitis was noted. […] In some of the patients it was possible to avoid steroids in the conventional commitment treatment course. In the allowing year observation there was noted a decrease in the incidence of bronchial asthma 4.2 fold. In more than half of the patients the disappearance of drug and food allergy manifestations was noted.

flu = assay type: in vivo, human; details: 3 days, with anti-flu vaccination
Periapical granulomas = assay type: in vivo, human; details: 3 days
Description: Patients with periapical granulomas treated with Ile-Trp are tested.

Herpes Zoster = Herpes Zoster patients, with interferon; assay type: in vivo, human; details: for clinical effect: 100 μg, 10 days
Description: Patients with Herpes Zoster are treated with Ile-Trp in combination with conventional interferon treatment and some control patients with interferon alone. […] There is noted prevention of relapses, and some healing occurred earlier than control groups. Immunological indices correlates with clinical outcome.
There was noted prevention of relapses, and healing occurred on the average 40% earlier than control groups. Immunological indices correlated with clinical outcome.

Description for Shigella: A total 125 patients infected with Shigella dysentery are examined.
A total 125 patients with 53 patients for control infected with Shigella dysentery were examined.

Glu-Trp [IM862]
increase of staphylococci antibiotic-sensitivity ([1]; IM862 100 μg 5 days, patients with secondary T-immunodeficiency): more than 100 fold
complete recovery, number of patients ([1]; IM862 treatment regimen): 27 patients
moderate improvement, number of patients ([1]; IM862 treatment regimen): 1 patient
significant improvement, number of patients ([1]; IM862 treatment regimen): 8 patients
clinical effect ([2]; IM862 1 μg/kg 5-7 days, 29 patients): disappearance of allergic reactions
clinical effect ([3]; IM862 100 μg 5-10 days, 156 patients): accelerated reduction in symptom complexes
clinical effect ([4]; IM862, 159 patients): Immunological indices were normalized with disappearance of skin manifestations
clinical effect ([5]; IM862 IM or intranasally): less deformity and scarring
alloblood rejection ([6]; IM862 100 μg 5 days, 76 patients): None of studies patients showed clinical manifestation of alloblood rejection
clinical effect (Shigella; IM862 IM 100 μg 10 days, 125 patients): normalization of fever
clinical effect (Pyelonephritis; IM862 100 μg 5-10 days with conventional therapy, 27 patients): reduction of fever
clinical effect (viral infection; IM862 100 μg 3-7 days, 186 patients): milder course of the viral infection
clinical effect (Lymphangitis; IM862 100 μg): controls the advance of lymphangitis
clinical effect (Chronic osteomyelitis; IM862 100 μg 10 days, 176 patients): pronounced positive influence on clinical course
infectious complications and graft rejection ([7]; IM862 50-100 μg 5 days, all 17 patients): prevented the arising of infections complications and graft rejection
wound healing (Wounds of various origin; IM862): speeded up; also recorded: accelerates wound healing
decrease in the incidence of bronchial asthma (Bronchial asthma; IM862, following year observation): 4.2 fold
clinical effect (Bronchial asthma; IM862 IM 1 μg/kg 5-10 days, 37 patients): less severe clinical symptoms
sickness rate for 12 months (flu; IM862 50 μg, 268 persons): significant decrease of sickness rate
clinical effect (Periapical granulomas; IM862 100 μg instillation, 46 patients): accelerated arrestation of the inflammatory process
clinical effect (Herpes Zoster; IM862 with interferon, 37 patients): accelerated regression of foci of herpetic infection
healing earlier than control groups (Herpes Zoster; IM862 with interferon, on the average): 40%

Ile-Trp
staphylococci antibiotic sensitivity ([1]; Ile-Trp 100 μg 5 days, patients with secondary T-immunodeficiency): is increased
clinical effect ([2]; Ile-Trp 1 μg/kg 5-7 days): disappearance of allergic reactions
clinical effect ([3]; Ile-Trp 100 μg 5-10 days): accelerated reduction in symptom complexes
clinical effect ([4]; Ile-Trp): Immunological indices are normalized with disappearance of skin manifestations
clinical effect ([5]; Ile-Trp IM or intranasally): less deformity and scarring
alloblood rejection ([6]; Ile-Trp 100 μg 5 days): do not show clinical manifestation of alloblood rejection
clinical effect (Shigella; Ile-Trp IM 100 μg 10 days): normalization of fever
clinical effect (Pyelonephritis; Ile-Trp 100 μg 5-10 days with conventional therapy): reduction of fever
clinical effect (viral infection; Ile-Trp 100 μg 3-7 days): milder course of the viral infection
clinical effect (Lymphangitis; Ile-Trp 100 μg): controls the advance of lymphangitis
clinical effect (Chronic osteomyelitis; Ile-Trp 100 μg 10 days): pronounced positive influence on clinical course
infectious complications and graft rejection ([7]; Ile-Trp 50-100 μg 5 days): prevents the arising of infections complications and graft rejection
wound healing (Wounds of various origin; Ile-Trp): speeds up; also recorded: accelerates wound healing
clinical effect (Bronchial asthma; Ile-Trp IM 1 μg/kg 5-10 days): less severe clinical symptoms
sickness rate for 12 months (flu; Ile-Trp 50 μg): significant decrease of sickness rate
clinical effect (Periapical granulomas; Ile-Trp 100 μg instillation): accelerated arrestation of the inflammatory process
clinical effect (Herpes Zoster; Ile-Trp with interferon): accelerated regression of foci of herpetic infection
